Tests used:
Human gammaherpesvirus 4 [1] = assay: Inhibition of TPA-induced Epstein-Barr virus early antigen activation in Raji cells after 48 hrs; format: functional, organism-based; conditions: human gammaherpesvirus 4, Raji
Raji = assay: Cell viability of Raji cells at 320 nM; format: functional, Homo sapiens
[2] = Scavenging activity against NO generation in human Chang liver cells assessed as inhibition of NOR1-activation at 350 nM relative to NOR1; format: functional
Human gammaherpesvirus 4 [3] = assay: Inhibition of TPA-induced Epstein-Barr virus early antigen activation assessed as EBV-EA induction in Raji cells at 32 nM after 48 hrs relative to TPA; values are per cent of control; conditions: human gammaherpesvirus 4, Raji
Human gammaherpesvirus 4 [4] = assay: Inhibition of TPA-induced Epstein-Barr virus early antigen activation assessed as EBV-EA induction in Raji cells at 320 nM after 48 hrs relative to TPA; values are per cent of control; conditions: human gammaherpesvirus 4, Raji
Human gammaherpesvirus 4 [5] = assay: Inhibition of TPA-induced Epstein-Barr virus early antigen activation assessed as EBV-EA induction in Raji cells at 3.2 nM after 48 hrs relative to TPA; values are per cent of control; conditions: human gammaherpesvirus 4, Raji
Human gammaherpesvirus 4 [6] = assay: Inhibition of TPA-induced Epstein-Barr virus early antigen activation assessed as EBV-EA induction in Raji cells at 0.32 nM after 48 hrs relative to TPA; values are per cent of control; conditions: human gammaherpesvirus 4, Raji

SMILES | IC50 (Human gammaherpesvirus 4 [1]) [nM] | Activity (Raji) [%] | Activity [2] | level, % of control at 0.032 µM (Human gammaherpesvirus 4 [3]) [%] | level, % of control at 0.32 µM (Human gammaherpesvirus 4 [4]) [%] | level, % of control at 0.0032 µM (Human gammaherpesvirus 4 [5]) [%] | level, % of control at 0.00032 µM (Human gammaherpesvirus 4 [6]) [%]
C=C(CC[C@@H](C)[C@H]1CC[C@@]2(C)[C@@H]3CC[C@H]4[C@@H](C)C(=O)CC[C@@]45C[C@@]35CC[C@]12C)C(C)C | 10.2 | 70 | 1.5 | 32.7 | 0 | 73.6 | 95.1
C=C(CC[C@@H](C)[C@H]1CC[C@@]2(C)[C@@H]3CC[C@H]4[C@H](C)C(=O)CC[C@@]45C[C@@]35CC[C@]12C)C(C)C [CYCLOEUCALENONE] | 10.3 | 70 | 1.5 | 33.4 | 0 | 74 | 96.2
CC(C)=C(C)CC[C@@H](C)[C@H]1CC[C@@]2(C)[C@@H]3CC[C@H]4C(C)(C)[C@@H](O)CC[C@@]45C[C@@]35CC[C@]12C [CYCLOBRANOL] | 9.4 | 70 | 1.9 | 30.5 | 0 | 71.3 | 94.5
C=C(C)[C@@H](C)CC[C@@H](C)[C@H]1CC[C@@]2(C)[C@@H]3CC[C@H]4[C@H](C)[C@H](O)CC[C@@]45C[C@@]35CC[C@]12C | 9.3 | 70 | 1.8 | 29.3 | 0 | 71.5 | 94.5
C=C(CC[C@@H](C)[C@H]1CC[C@@]2(C)[C@@H]3CC[C@H]4[C@H](C)[C@@H](O)CC[C@@]45C[C@@]35CC[C@]12C)C(C)C [CYCLOEUCALENOL] | 8.9 | 70 | 1.7 | 26.5 | 0 | 68.1 | 94.8
C=C(CC[C@@H](C)[C@H]1CC[C@@]2(C)[C@@H]3CC[C@H]4C(C)(C)[C@@H](OC(=O)/C=C/c5ccc(O)c(OC)c5)CC[C@@]45C[C@@]35CC[C@]12C)C(C)C | 15.8 | 70 | 1.8 | 54.7 | 17.6 | 82 | 100
CC(=O)[C@H]1CC[C@@]2(C)[C@@H]3CC[C@H]4C(C)(C)C(=O)CC[C@@]45C[C@@]35CC[C@]12C | 8.9 | 70 | 1.5 | 22.1 | 0 | 70.3 | 94.6
C=C(CC[C@@H](C)[C@H]1CC[C@@]2(C)[C@@H]3CC[C@H]4[C@H](C)[C@@H](OC(C)=O)CC[C@@]45C[C@@]35CC[C@]12C)C(C)C [CYCLOEUCALENOL ACETATE] | 10.1 | 70 | 1.5 | 32.4 | 0 | 73.5 | 96.2
COC(CC[C@@H](C)[C@H]1CC[C@@]2(C)[C@@H]3CC[C@H]4C(C)(C)C(=O)CC[C@@]45C[C@@]35CC[C@]12C)C(C)(C)O (stereo partly specified) | 8.8 | 70 | 1.9 | 21 | 0 | 67.1 | 94.6
CC(C)=CCC[C@@H](C)[C@H]1CC[C@@]2(C)[C@@H]3CC[C@H]4C(C)(C)C(=O)CC[C@@]45C[C@@]35CC[C@]12C [CYCLOARTENONE] | 8.8 | 70 | 1.5 | 24.6 | 2.3 | 71.3 | 92.6
C=C(C)[C@H](O)CC[C@@H](C)[C@H]1CC[C@@]2(C)[C@@H]3CC[C@H]4C(C)(C)[C@@H](O)CC[C@@]45C[C@@]35CC[C@]12C | 6.4 | 70 | 2 | 15 | 0 | 57.8 | 84.4
CC(C)CCC[C@@H](C)[C@@H]1CC[C@@]2(C)[C@@H]3CC[C@H]4C(C)(C)[C@@H](O)CC[C@@]45C[C@@]35CC[C@]12C | 9.4 | 70 | 1.6 | 30.8 | 0 | 71.2 | 94.2
C=C(CC[C@@H](C)[C@H]1CC[C@@]2(C)[C@@H]3CC[C@H]4C(C)(C)C(=O)CC[C@@]45C[C@@]35CC[C@]12C)C(C)C | 9.2 | 70 | 1.9 | 26.4 | 3.1 | 73.5 | 96.1
C=C(C)C(O)CC[C@@H](C)[C@H]1CC[C@@]2(C)[C@@H]3CC[C@H]4C(C)(C)C(=O)CC[C@@]45C[C@@]35CC[C@]12C (stereo partly specified) | 8.6 | 70 | 2 | 21.1 | 0 | 69.7 | 91.2
C=C(CC[C@@H](C)[C@H]1CC[C@@]2(C)[C@@H]3CC[C@H]4[C@@H](C)[C@@H](O)CC[C@@]45C[C@@]35CC[C@]12C)C(C)C | 9.5 | 70 | 1.5 | 29.9 | 0 | 72 | 95.1
C=C(CC[C@@H](C)[C@H]1CC[C@@]2(C)[C@@H]3CC[C@H]4[C@H](C)[C@@H](OC(=O)/C=C/c5ccc(O)c(OC)c5)CC[C@@]45C[C@@]35CC[C@]12C)C(C)C [CYCLOEUCALENOL FERULATE] | 15.5 | 70 | 1.5 | 53.2 | 14.2 | 81.5 | 100
CC(C)=CCC[C@@H](C)[C@H]1CC[C@@]2(C)[C@@H]3CC[C@H]4[C@H](C)[C@@H](O)CC[C@@]45C[C@@]35CC[C@]12C | 9.5 | 70 | 1.8 | 30.2 | 0 | 71.4 | 94.6
CC(C)=CCC[C@@H](C)[C@H]1CC[C@@]2(C)[C@@H]3CC[C@H]4C(C)(C)[C@H](O)CC[C@@]45C[C@@]35CC[C@]12C | 9.2 | 70 | 1.8 | 29.7 | 0 | 70.3 | 93.7

— ChEMBL document CHEMBL1143693, “Cancer chemopreventive effects of cycloartane-type and related triterpenoids in in vitro and in vivo models” (J Nat Prod, 2007)
